Reference: patent US20230123601A1, “PHARMACEUTICAL COMBINATION OF ANTIVIRAL AGENTS TARGETING HBV AND/OR AN IMMUNE MODULATOR FOR TREATMENT OF HBV” (priority 2019, published 2023)

System: HBV
Test: HBsAg levels in serum of AAV/HBV mice (CLIA)
Assay type: in vivo, C57BL/6 mice
Design: HBsAg levels in serum (Average ± SD): scale not given here
Excerpt: The AAV-HBV mouse model is generated by injecting C57BL/6 mice with recombinant adeno-associated virus harboring a replicable HBV genome (AAV-HBV). The rAAV8-1.3 HBV ayw virus stock was purchased from Beijing FivePlus Molecular Medicine Institute (Beijing, China). The animals (male, aged 4-5 weeks upon arrival) were purchased from SLAC Laboratory Animal Co. Ltd (Shanghai, China), acclimatized in the animal facility for 5-7 days, and then injected with 1×10^11 vector genome of AAV-HBV (diluted in 200 μL of PBS) through the tail vein. Persistence expression of HBV genome can be established after three weeks, with high levels of HBV viral markers including HBV DNA, HBsAg, and HBeAg in mouse serum. With stable HBV viremia and competent immune system of the C57BL/6 mice, the AAV-HBV mouse model was used to evaluate the in vivo anti-HBV efficacy of the compounds. The in-life part of the AAV-HBV study was conducted through contracted service at Covance Pharmaceutical Research and Development (Shanghai) Co. Ltd. (Covance Shanghai) and the post-life analysis using the serum was performed internally at Roche Innovation Center Shanghai (RICS).
Seven days before compound treatment, blood samples were collected for serum preparation (˜15 μL), and based on HBV DNA, HBsAg levels in serum and body weight, the AAV-HBV infected animals were stratified into the different treatment groups.
Saline (Group 01) and anti-HBV ASO of CMP ID NO: 15_1 at 1.5 or 7.5 mg/kg were dosed sub subcutaneously once a week during Day 0-49 on Days 0, 7, 14, 21, 28, 35, 42 and 49. TLR7 agonist of CMP ID NO: VI 100 mg/kg was administered by oral gavage once every other day during Day 0-55 (QOD) or once weekly during Day 0-49 on Days 0, 7, 14, 21, 28, 35, 42 and 49 (QW). The animals were weekly bled via retro-orbital sinus for sample collection throughout the study.
Serum HBsAg levels were determined in the serum of infected AAV-HBV mouse using the HBsAg chemoluminescence immunoassay (CLIA) (Autobio diagnostics Co. Ltd., Zhengzhou, China, Cat. no. CL0310-2), according to the manufacturer's protocol. Briefly, 50 μl of serum was transferred to the antibody coated microtiter plate and 50 μl of enzyme conjugate reagent was added. The plate was incubated for 60 min on a shaker at room temperature before all wells were washed six times with washing buffer using an automatic washer. 25 μl of substrate A and then 25 μl of substrate B was added to each well. The plate was incubated for 10 min at RT before luminescence was measured using an Envision luminescence reader (Perkin Elmer). HBsAg is given in the unit IU/ml; where 1 ng HBsAg=1.14 IU.
To evaluate the combination of the anti-HBV ASO and the TLR7 agonist in an in vivo system, a mouse model of chronic HBV infection was used. In the AAV/HBV mouse model described in the Materials and Method a persistent HBV infection is established resulting in expression of viral markers (HBsAg, HBeAg, HBV DNA) detectable in plasma. The effect on these viral markers upon treatment with the anti-HBV ASO of CMP ID NO: 15_1 (table 2, and FIG. 4) dosed at 1.5 mg/kg or 7.5 mg/kg and the TLR7 agonist of CMP ID NO: VI (table 3) dosed with […] every other day (QOD) or once weekly (QW) in monotherapy or in combination has been evaluated.

## CC[C@H](OC(C)=O)[C@@H]1C[C@@H](O)[C@H](n2c(=O)sc3cnc(N)nc32)O1 [CMP ID NO: VI, [(1S)-1-[(2S,4R,5R)-5-(5-amino-2-oxo-thiazolo[4,5-d]pyrimidin-3-yl)-4-hydroxy-tetrahydrofuran-2-yl]propyl] acetate]
D0, 15_1 1.5 mg/kg weekly, VI 100 mg/kg QOD, or combination of both
  HBsAg levels in serum (Average ± SD): 4.14 ± 0.37
D0, 15_1 1.5 mg/kg weekly, VI 100 mg/kg QW, or combination of both
  HBsAg levels in serum (Average ± SD): 4.07 ± 0.44
D0, 15_1 7.5 mg/kg weekly, VI 100 mg/kg QOD, or combination of both
  HBsAg levels in serum (Average ± SD): 4.14 ± 0.37
D0, 15_1 7.5 mg/kg weekly, VI 100 mg/kg QW, or combination of both
  HBsAg levels in serum (Average ± SD): 4.07 ± 0.44
D7, 15_1 1.5 mg/kg weekly, VI 100 mg/kg QOD, or combination of both
  HBsAg levels in serum (Average ± SD): 3.68 ± 1.03
D7, 15_1 1.5 mg/kg weekly, VI 100 mg/kg QW, or combination of both
  HBsAg levels in serum (Average ± SD): 3.72 ± 0.85
D7, 15_1 7.5 mg/kg weekly, VI 100 mg/kg QOD, or combination of both
  HBsAg levels in serum (Average ± SD): 3.68 ± 1.03
D7, 15_1 7.5 mg/kg weekly, VI 100 mg/kg QW, or combination of both
  HBsAg levels in serum (Average ± SD): 3.72 ± 0.85
D14, 15_1 1.5 mg/kg weekly, VI 100 mg/kg QOD, or combination of both
  HBsAg levels in serum (Average ± SD): 3.11 ± 1.35
D14, 15_1 1.5 mg/kg weekly, VI 100 mg/kg QW, or combination of both
  HBsAg levels in serum (Average ± SD): 3.52 ± 0.96
D14, 15_1 7.5 mg/kg weekly, VI 100 mg/kg QOD, or combination of both
  HBsAg levels in serum (Average ± SD): 3.11 ± 1.35
D14, 15_1 7.5 mg/kg weekly, VI 100 mg/kg QW, or combination of both
  HBsAg levels in serum (Average ± SD): 3.52 ± 0.96
D21, 15_1 1.5 mg/kg weekly, VI 100 mg/kg QOD, or combination of both
  HBsAg levels in serum (Average ± SD): 2.62 ± 1.41
D21, 15_1 1.5 mg/kg weekly, VI 100 mg/kg QW, or combination of both
  HBsAg levels in serum (Average ± SD): 3.07 ± 1.22
D21, 15_1 7.5 mg/kg weekly, VI 100 mg/kg QOD, or combination of both
  HBsAg levels in serum (Average ± SD): 2.62 ± 1.41
D21, 15_1 7.5 mg/kg weekly, VI 100 mg/kg QW, or combination of both
  HBsAg levels in serum (Average ± SD): 3.07 ± 1.22
D28, 15_1 1.5 mg/kg weekly, VI 100 mg/kg QOD, or combination of both
  HBsAg levels in serum (Average ± SD): 2.21 ± 1.28
D28, 15_1 1.5 mg/kg weekly, VI 100 mg/kg QW, or combination of both
  HBsAg levels in serum (Average ± SD): 2.65 ± 1.37
D28, 15_1 7.5 mg/kg weekly, VI 100 mg/kg QOD, or combination of both
  HBsAg levels in serum (Average ± SD): 2.21 ± 1.28
D28, 15_1 7.5 mg/kg weekly, VI 100 mg/kg QW, or combination of both
  HBsAg levels in serum (Average ± SD): 2.65 ± 1.37
D35, 15_1 1.5 mg/kg weekly, VI 100 mg/kg QOD, or combination of both
  HBsAg levels in serum (Average ± SD): 1.78 ± 1.18
D35, 15_1 1.5 mg/kg weekly, VI 100 mg/kg QW, or combination of both
  HBsAg levels in serum (Average ± SD): 2.49 ± 1.29
D35, 15_1 7.5 mg/kg weekly, VI 100 mg/kg QOD, or combination of both
  HBsAg levels in serum (Average ± SD): 1.78 ± 1.18
D35, 15_1 7.5 mg/kg weekly, VI 100 mg/kg QW, or combination of both
  HBsAg levels in serum (Average ± SD): 2.49 ± 1.29
D42, 15_1 1.5 mg/kg weekly, VI 100 mg/kg QOD, or combination of both
  HBsAg levels in serum (Average ± SD): 1.57 ± 0.97
D42, 15_1 1.5 mg/kg weekly, VI 100 mg/kg QW, or combination of both
  HBsAg levels in serum (Average ± SD): 2.28 ± 1.28
D42, 15_1 7.5 mg/kg weekly, VI 100 mg/kg QOD, or combination of both
  HBsAg levels in serum (Average ± SD): 1.57 ± 0.97
D42, 15_1 7.5 mg/kg weekly, VI 100 mg/kg QW, or combination of both
  HBsAg levels in serum (Average ± SD): 2.28 ± 1.28
D49, 15_1 1.5 mg/kg weekly, VI 100 mg/kg QOD, or combination of both
  HBsAg levels in serum (Average ± SD): 1.63 ± 0.86
D49, 15_1 1.5 mg/kg weekly, VI 100 mg/kg QW, or combination of both
  HBsAg levels in serum (Average ± SD): 1.9 ± 1.07
D49, 15_1 7.5 mg/kg weekly, VI 100 mg/kg QOD, or combination of both
  HBsAg levels in serum (Average ± SD): 1.63 ± 0.86
D49, 15_1 7.5 mg/kg weekly, VI 100 mg/kg QW, or combination of both
  HBsAg levels in serum (Average ± SD): 1.90 ± 1.07
D56, 15_1 1.5 mg/kg weekly, VI 100 mg/kg QOD, or combination of both
  HBsAg levels in serum (Average ± SD): 1.56 ± 0.77
D56, 15_1 1.5 mg/kg weekly, VI 100 mg/kg QW, or combination of both
  HBsAg levels in serum (Average ± SD): 2.13 ± 1
D56, 15_1 7.5 mg/kg weekly, VI 100 mg/kg QOD, or combination of both
  HBsAg levels in serum (Average ± SD): 1.56 ± 0.77
